Measured values as given in US20250346602A1, “LACTAM SUBSTITUTED IMIDAZOPYRIDAZINE IL-17A MODULATORS AND USES THEREOF” (DICE ALPHA, INC., priority 2022, published 2025).
pIC50: −log10 of the molar value.

Biological target: T1, IL-17A/A (Homo sapiens, UniProt Q16552)
T1 construct: purchased Genscript Z03228
T1 sequence (Q16552 24-155): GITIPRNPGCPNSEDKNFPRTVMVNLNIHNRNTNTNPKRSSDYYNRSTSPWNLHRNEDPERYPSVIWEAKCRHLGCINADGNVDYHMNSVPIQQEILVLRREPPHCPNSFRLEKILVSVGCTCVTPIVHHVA
Test: IL-17A/A HEK-Blue cell assay
Assay type: cell-based
Settings: HEK-Blue IL-17A reporter cell line (HEK 293), IL-17A/A stimulation, 20 hours incubation, SEAP read at A630
Method: The HEK-Blue IL-17A reporter cell line (Fisher #NC1408637) was used for cell-based IL-17A/A inhibition assays. Cells were grown and prepared for assays according to the manufacturer's instructions. This cell line consists of HEK 293 cells that were designed to expressed IL-17RA, IL-17RC, and the ActI adapter molecule, the combination of which, when stimulated by IL-17A/A activates a NFκB promoter and drives expression of a recombinant Secreted Alkaline Phosphatase (SEAP) gene protein. Media from the cells is then added to a development reagent (Quanti-Blue Substrate, Fisher #NC9711613), and read at A630.
Compounds were titrated in DMSO, with a top final compound concentration of 10 uM, 1 uM, or 0.3 uM, and added to the cells immediately before adding IL-17A/A (Genscript #Z03228). The cells, compound, and IL-17A/A were then incubated for 20 hours before media was removed for SEAP analysis. The resulting inhibition curve was then analyzed using Graphpad Prism 7.0, and IC50 values were determined using a 4-parameter nonlinear fit. DMSO was added to a universal final concentration of 0.1% to optimize background.

Row | SMILES | pIC50
1 | CCn1nccc1C(=O)N[C@H](c1cn2nc(CC3CC(F)(F)CNC3=O)c(C)cc2n1)C1CCC(F)(F)CC1 (single isomer, unassigned) [Compound 77] | < 6.00
2 | CCn1nccc1C(=O)N[C@H](c1cn2nc(CC3C[C@@H](C(F)(F)F)CNC3=O)c(C(F)(F)F)cc2n1)[C@H]1CC[C@H](C)CC1 (single isomer, unassigned) [Compound 79] | < 6.00
3 | CCn1nccc1C(=O)N[C@H](c1cn2nc(CC3C[C@@H](C(F)(F)F)CNC3=O)c(Cl)cc2n1)C1CCC(F)(F)CC1 (single isomer, unassigned) [Compound 80] | 6.00 to 7.00
4 | CCn1nccc1C(=O)N[C@H](c1cn2nc(CC3C[C@@H](C(F)(F)F)CNC3=O)c(C)cc2n1)C1CCC(F)(F)CC1 (single isomer, unassigned) [Compound 82] | < 6.00
5 | CCn1nccc1C(=O)N[C@H](c1cn2nc(CC3C[C@@H](C(F)(F)F)CNC3=O)c(N(C)C)cc2n1)C1CCC(F)(F)CC1 (single isomer, unassigned) [Compound 85] | 6.00 to 7.00
6 | CCn1nccc1C(=O)N[C@H](c1cn2nc(CC3CC(F)(F)CNC3=O)c(N(C)C)cc2n1)C1CCC(F)(F)CC1 (single isomer, unassigned) [Compound 87] | > 7.00
7 | CCN(C)c1cc2nc([C@@H](NC(=O)c3ccnn3CC)C3CCC(F)(F)CC3)cn2nc1CC1C[C@@H](C(F)(F)F)CNC1=O (single isomer, unassigned) [Compound 88] | > 7.00
8 | CCN(C)c1cc2nc([C@@H](NC(=O)c3ccnn3CC)C3CCC(F)(F)CC3)cn2nc1CC1C[C@@H](C(F)(F)F)CNC1=O (single isomer, unassigned) [Compound 89] | > 7.00
9 | CCn1nccc1C(=O)N[C@H](c1cn2nc(CC3C[C@@H](C(F)(F)F)CNC3=O)c(N(C)C3CC3)cc2n1)C1CCC(F)(F)CC1 (single isomer, unassigned) [Compound 90] | 6.00 to 7.00
10 | CCn1nccc1C(=O)N[C@H](c1cn2nc(CC3C[C@@H](C(F)(F)F)CNC3=O)c(N(C)C3CC3)cc2n1)C1CCC(F)(F)CC1 (single isomer, unassigned) [Compound 91] | > 7.00
11 | CCn1nccc1C(=O)N[C@H](c1cn2nc(CC3C[C@@H](C(F)(F)F)CNC3=O)c(N(C)C3CCOCC3)cc2n1)C1CCC(F)(F)CC1 (single isomer, unassigned) [Compound 94] | > 7.00
12 | O=C(N[C@H](c1cn2nc(CC3C[C@@H](C(F)(F)F)CNC3=O)ccc2n1)C1CCC(F)(F)CC1)c1conc1C1CC1(F)F (single isomer, unassigned) [Compound 126] | > 7.00

Results, then the compound that gave them:

Row | pIC50 | SMILES
13 | 6.00 to 7.00 | CCn1nccc1C(=O)N[C@H](c1cn2nc(CC3C[C@@H](C(F)(F)F)CNC3=O)c(C(F)(F)F)cc2n1)[C@H]1CC[C@H](C)CC1 (single isomer, unassigned) [Compound 78]
14 | 6.00 to 7.00 | CCn1nccc1C(=O)N[C@H](c1cn2nc(CC3C[C@@H](C(F)(F)F)CNC3=O)c(C)cc2n1)C1CCC(F)(F)CC1 (single isomer, unassigned) [Compound 83]
15 | > 7.00 | CCn1nccc1C(=O)N[C@H](c1cn2nc(CC3C[C@H](C(F)(F)F)CNC3=O)c(C)cc2n1)C1CCC(F)(F)CC1 (single isomer, unassigned) [Compound 92]
16 | 6.00 to 7.00 | CCn1nccc1C(=O)N[C@H](c1cn2nc(CC3C[C@@H](C(F)(F)F)CNC3=O)c(N(C)C3CCOCC3)cc2n1)C1CCC(F)(F)CC1 (single isomer, unassigned) [Compound 93]
17 | > 7.00 | O=C(N[C@H](c1cn2nc(CC3C[C@@H](C(F)(F)F)CNC3=O)ccc2n1)C1CCC(F)(F)CC1)c1ccnn1C1CC1(F)F (single isomer, unassigned) [Compound 98]
18 | 6.00 to 7.00 | O=C(N[C@H](c1cn2nc(CC3C[C@@H](C(F)(F)F)CNC3=O)ccc2n1)C1CCC(F)(F)CC1)c1ccnn1C1CC1(F)F (single isomer, unassigned) [Compound 99]
19 | > 7.00 | O=C(N[C@H](c1cn2nc(CC3C[C@@H](C(F)(F)F)CNC3=O)ccc2n1)C1CCC(F)(F)CC1)c1conc1C1CC1(F)F (single isomer, unassigned) [Compound 127]
